Test results reported in article PMC12903857.

How the values were obtained:
Type in all cases: binding
14-3-3σ/C-RAF259 [1] = biological target: T1, 14-3-3σ/C-RAF259 (Homo sapiens, UniProt P31947); assay: Intact mass spectrometry assay with C-RAF259 phospho-peptide; design: full-length for mass spectrometry and fluorescence anisotropy assays; made in house; host or cells: E. coli Rosetta 2(DE3)pLysS (14-3-3σ); peptides from Elim Biopharmaceuticals; settings: 1 μM compound, 100 nM 14-3-3σ, 18 µM peptide
Description: (§1) In analogy to our previous work, two orthogonal assays were used for screening (Figure S2). […] Dose responses of compounds were performed in the absence and presence of the C-RAF259 phospho-peptide to distinguish between neutral binders and cooperative molecular glues. The experiment was performed as a time course, with measurements every 8 h, after an 1 h incubation. Additionally, the compounds were tested in a fluorescence anisotropy (FA) assay in the presence of the 5-carboxyfluorescein-(FAM)-labeled C-RAF259 peptide. […] The full dose–response data for all compounds are available in the SI (Tables S2–S5, Figures S5–S8, Figures S15–S18, Figures S25–S32, Figures S37–S39). The dose–response data from both assays were also visually compared in the form of bar graphs. […] For FA experiments, the EC50 values from the overnight measurement were calculated and plotted as bar graphs showing the […] log EC50 value (pEC50). Compounds acting as MGs were expected to show increases in both types of bar graphs.
(§2) transferred in the assay plates.
(§3) The reacton mixtures were incubated
(§4) dispensed in the assay plates.
(§5) incubaton at room temperature .

14-3-3σ = biological target: T2, 14-3-3σ (Homo sapiens, UniProt P31947); assay: Intact mass spectrometry assay, apo (no peptide); design: full-length for mass spectrometry and fluorescence anisotropy assays; made in house; host or cells: E. coli Rosetta 2(DE3)pLysS, pPROEX HTb vector; settings: 1 μM compound, 100 nM 14-3-3σ
T2 sequence (P31947 1-248): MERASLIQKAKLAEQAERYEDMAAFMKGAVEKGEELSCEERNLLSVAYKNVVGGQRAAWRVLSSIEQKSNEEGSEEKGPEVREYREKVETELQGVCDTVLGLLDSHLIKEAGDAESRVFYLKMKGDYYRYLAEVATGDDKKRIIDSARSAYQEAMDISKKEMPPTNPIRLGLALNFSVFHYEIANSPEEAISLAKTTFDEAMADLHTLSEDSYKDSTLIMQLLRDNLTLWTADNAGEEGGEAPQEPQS
Description: as §1, §2, §3, §4, §5

14-3-3σ/C-RAF259 [2] = biological target: T1, 14-3-3σ/C-RAF259; assay: Fluorescence anisotropy (FA) compound titration; settings: 10 nM C-RAF259-FAM 10-mer, 5 μΜ 14-3-3σ, overnight; for EC50: read-out: Compound titrations EC50 value C-RAF259
Description: as §1, §2, §3, §4, §5

Row | Structure (SMILES) | % bound, C-RAF259 (11mer), 1h (14-3-3σ/C-RAF259 [1]) | % bound, C-RAF259 (11mer), 8h (14-3-3σ/C-RAF259 [1]) | % bound, C-RAF259 (11mer), 16h (14-3-3σ/C-RAF259 [1]) | % bound, APO, 1h (14-3-3σ) | % bound, APO, 8h (14-3-3σ) | % bound, APO, 16h (14-3-3σ) | % bound, APO, 24h (14-3-3σ) | EC50 (14-3-3σ/C-RAF259 [2]) | % bound, C-RAF259 (11mer), 24h (14-3-3σ/C-RAF259 [1]) | Compound titrations EC50 value C-RAF259 (14-3-3σ/C-RAF259 [2])
1 | O=C(CCl)N1CC[C@]2(CCN(S(=O)(=O)c3ccc(Br)c(F)c3)C2)C1 [Compound 89] | 43% | 65.8% | 82% | 5.6% | 14.5% | 36.2% | 53.9% | > 250 µM |  | 
2 | O=C(CCl)N1CC2(CC(NS(=O)(=O)c3ccc(Br)c(F)c3)CO2)C1 (centres unmarked) [Compound 67] | 15% | 30.4% | 55.6% | 2.9% | 9.1% | 15.9% | 23% | 14 ± 1 µM | 81.5% | 
3 | O=C(CCl)N1CC2(CCN(S(=O)(=O)c3ccc(Br)c(F)c3)CC2(F)F)C1 [Compound 52] | 25% | 45.1% | 64.3% | 2.9% | 11.3% | 18.5% | 28.6% | 94 ± 9 µM | 80.2% | 
4 | O=C(CCl)NCC1CCN(S(=O)(=O)c2ccc(Cl)nc2)CC1 [Compound 14] | 4.7% | 7.4% | 9.9% | 1.9% | 2.5% | 3% | 15% | 82 ± 6 µM | 20.9% | 
5 | O=C(CCl)NCC1CCN(S(=O)(=O)Cc2ccc(F)cc2)CC1 [Compound 7] | 1.5% | 1.5% | 2.5% | 1% | 1.9% | 1.9% | 2.9% | > 1000 µM | 4.7% | 
6 | COc1ccc(S(=O)(=O)N2CCC(CNC(=O)CCl)CC2)cc1 [Compound 25] | 10.6% | 15% | 27.1% | 0.5% | 1.9% | 7.4% | 13.8% | 57 ± 9 µM | 44.4% | 
7 | O=C(CCl)NCC1CCN(S(=O)(=O)C2CCC3(CC2)CC3(F)F)CC1 (centres unmarked) [Compound 34] | 0.5% | 0.9% | 0.9% | 0% | 0.5% | 0.9% | 0.9% | > 1000 µM | 3.8% | 
8 | O=C(CCl)NCC1CCN(S(=O)(=O)c2ccc(Br)c(F)c2)CC1 [Compound 37] |  |  |  |  |  |  |  | 5 ± 1 µM |  | 
9 | O=C(C(Cl)Cl)N1CC2(CCN(S(=O)(=O)c3ccc(Br)c(F)c3)CC2(F)F)C1 [Compound 74] | 0% | 0% | 0% | 0% | 0% | 0% | 0% | > 1000 µM | 4.7% | completely inactive
10 | O=C(CCl)NCC1CCN(S(=O)(=O)c2ccccc2)CC1 [Compound 10] | 4.7% | 5.6% | 5.7% | 4.7% | 4.7% | 4.7% | 4.7% | 66 ± 4 µM | 13% | 
11 | N#Cc1ccc(S(=O)(=O)N2CCC(CNC(=O)CCl)CC2)cc1 [Compound 20] | 4.7% | 12.1% | 23.9% | 0% | 0.5% | 1.5% | 2.9% | > 150 µM | 42.3% | 
12 | O=C(CCl)N1CC2(C1)CN(S(=O)(=O)c1ccc(C(F)(F)F)c(F)c1)CCO2 [Compound 80] |  |  |  |  |  |  |  | 9 ± 2 µM |  | 
13 | O=C(CCl)N1CC2(CCCN(S(=O)(=O)c3ccc(Br)c(F)c3)C2)C1 [Compound 83] |  |  |  |  |  |  |  | 5 ± 2 µM |  | 
14 | O=C(CCl)NCC1CCN(S(=O)(=O)c2ccc(C(F)(F)F)c(F)c2)CC1 [Compound 32] |  |  |  |  |  |  |  | 4 ± 1 µM |  | 
15 | O=C(CCl)NC1CC2(CCN(S(=O)(=O)c3ccc(Br)c(F)c3)CC2)C1 [Compound 55] | 6.1% | 9.9% | 20.6% | 0% | 0.9% | 1.9% | 7.4% | > 1000 µM | 34.6% | 
16 | O=C(CCl)NCC1CCN(S(=O)(=O)c2cccc(C(F)(F)F)c2)CC1 [Compound 17] | 1.9% | 3.4% | 6.5% | 0% | 0% | 0.5% | 0.9% | > 150 µM | 12.3% | 
17 | O=C(CCl)N1CC2(CCN(S(=O)(=O)c3ccc(Br)c(F)c3)CC2)C1 [Compound 49] | 11.1% | 32.4% | 53.8% | 1.9% | 5.2% | 13.8% | 15.9% | 47 ± 4 µM | 86.6% | 
18 | O=C(CCl)NCC1CCN(S(=O)(=O)c2ccc(F)c(F)c2)CC1 [Compound 28] | 4.3% | 15.2% | 27.5% | 1.9% | 4.7% | 6.5% | 9.1% | 88 ± 2 µM | 40% | 
19 | O=C(CCl)NCC1CCN(S(=O)(=O)C2CC3(C2)CC(F)(F)C3)CC1 [Compound 35] | 0% | 0% | 0% | 0% | 0% | 0% | 0.5% | > 1000 µM | 3.8% | 
20 | O=C(CCl)NCC1CCN(S(=O)(=O)c2ccccc2F)CC1 [Compound 15] | 3.3% | 8.2% | 13.7% | 0.5% | 1.9% | 2.4% | 2.4% | 87 ± 9 µM | 23.3% | 
21 | O=C(CCl)NCc1ccc(NS(=O)(=O)c2ccc(Br)c(F)c2)cc1 [Compound 73] | 1.9% | 2.9% | 12.1% | 0% | 1.5% | 1.5% | 3.8% | > 1000 µM | 31% | 
22 | C=C(F)C(=O)N1CC2(CCN(S(=O)(=O)c3ccc(Br)c(F)c3)CC2(F)F)C1 [Compound 75] | 0% | 0% | 0% | 0% | 0% | 0% | 0% | > 1000 µM | 2.9% | completely inactive
